From ChEMBL document CHEMBL4725286, “Synthesis and antibiofilm evaluation of 3-hydroxy-2,3-dihydroquinazolin-4(1H)-one derivatives against opportunistic pathogen Acinetobacter baumannii” (2020) come the findings set out here.

For assay [1], the system named is Acinetobacter baumannii. Put plainly: Antibiofilm activity against Acinetobacter baumannii assessed as inhibition of biofilm formation at 50 uM incubated for 24 hrs at stationary condition by crystal violet staining based assay relative to control. Type of assay: functional.
In assay [2] the test system is Acinetobacter baumannii. As to the kind of experiment: Antibiofilm activity against Acinetobacter baumannii assessed as inhibition of planktonic growth at 300 uM. In kind it is functional, organism-based.
The test system of a further assay is Escherichia coli. As to the kind of experiment: Antibiofilm activity against Escherichia coli assessed as inhibition of biofilm formation at 50 uM incubated for 24 hrs at stationary condition by crystal violet staining based assay relative to control. Type of assay: functional. Particulars: DH5[alpha].
The subject of a further assay is Pseudomonas aeruginosa. Put plainly: Antibiofilm activity against Pseudomonas aeruginosa ATCC 27853 assessed as inhibition of biofilm formation at 50 uM incubated for 24 hrs at stationary condition by crystal violet staining based assay relative to control. Type of assay: functional.
Assay [3] concerns Acinetobacter baumannii. As to the kind of experiment: Antibiofilm activity against drug-resistant Acinetobacter baumannii 1925052 assessed as inhibition of biofilm formation at 50 uM incubated for 24 hrs at stationary condition by crystal violet staining based assay relative to control. Type of assay: functional.
The test system of assay [4] is Acinetobacter baumannii. Put plainly: Antibacterial activity against Acinetobacter baumannii assessed as reduction in motility at 50 uM after 24 hrs photographic-based method. In kind it is functional, organism-based.
Assay [5] relates to Acinetobacter baumannii. As to the kind of experiment: Antibacterial activity against Acinetobacter baumannii S1 incubated for 24 hrs by checkerboard titration assay. Type of assay: functional.
Assay [6] has as its system Acinetobacter baumannii. As to the kind of experiment: Synergistic antibacterial activity against Acinetobacter baumannii S1 incubated for 24 hrs in presence of gentamycin sulfate by checkerboard titration assay. Type of assay: functional.
The test system of assay [7] is Acinetobacter baumannii. As to the kind of experiment: Synergistic antibacterial activity against Acinetobacter baumannii S1 assessed as FIC incubated for 24 hrs in presence of gentamycin sulfate by checkerboard titration assay. In kind it is functional.
Assay [8] has as its system Acinetobacter baumannii. Put plainly: Induction of morphological changes in Acinetobacter baumannii biofilm inhibition assessed as reduction in extracellular polysaccharide at 10 uL preincubated for 24 hrs followed by incubating in dark for 1 hr by optical density based plate reader assay relative to control. In kind it is functional. Details: scale not given: the % may be the effect or the level left.

Assay [9] relates to Acinetobacter baumannii. As to the kind of experiment: Synergistic antibacterial activity against Acinetobacter baumannii S1 assessed as FICI incubated for 24 hrs in presence of gentamycin sulfate by checkerboard titration assay. Type of assay: functional.
The subject of assay [10] is Acinetobacter baumannii. Put plainly: Synergistic antibacterial activity against Acinetobacter baumannii S1 assessed as FIC incubated for 24 hrs in presence of 1-(3-chlorobenzyl)-3-hydroxy-2-(2-hydroxyphenyl)-2,3-dihydroquinazolin-4(1H)-one by checkerboard titration assay. Type of assay: functional.
In assay [11] the test system is Acinetobacter baumannii. As to the kind of experiment: Synergistic antibacterial activity against Acinetobacter baumannii S1 assessed as FIC incubated for 24 hrs in presence of 3-hydroxy-2-isopropyl-1-octyl-2,3-dihydroquinazolin-4(1H)-one by checkerboard titration assay. Type of assay: functional.
Assay [12] has as its system Acinetobacter baumannii. As to the kind of experiment: Antibacterial activity against Acinetobacter baumannii assessed as bacterial death at 50 uM incubated for 15 mins by SYTO9 and PI staining based fluorescence microscopic method. Type of assay: functional, organism-based.

Calls of active or inactive are those of the source. The calls are words filed in the database; no cut-off is given here.

In general, inhibition refers to the relative decrease from the control value, in per cent. On to `CCCCCCCCCCCCN1c2ccccc2C(=O)N(O)C1c1ccccc1O` (stereo not given), for which, in the assay on Acinetobacter baumannii [1], the inhibition at 50 µM worked out at 8.9%. Also, the inhibition result in the assay with Acinetobacter baumannii [2] is “inactive”.

In the case of `CCCCCCCCN1c2ccccc2C(=O)N(O)C1c1ccc(C)cc1` (stereo not given), the inhibition at 50 µM in the assay on Acinetobacter baumannii [1] was found to be 9.2%. Also, the inhibition result in the assay on Acinetobacter baumannii [2] was “inactive”.

Take `CCCCCCCCN1c2ccccc2C(=O)N(O)C1c1ccccc1O` (stereo not given): the inhibition at 50 µM with Acinetobacter baumannii [1] worked out at 23.5%. Besides, the inhibition entry in the assay with Acinetobacter baumannii [2] is “inactive”.

On to `CCCCCCCCN1c2ccccc2C(=O)N(O)C1c1ccc(O)cc1` (stereo not given), for which the inhibition at 50 µM in the assay with Acinetobacter baumannii [1] was determined as 13.3%. Further, in the assay with Acinetobacter baumannii [2], the inhibition entry is “inactive”.

For `CCCCCCCCN1c2ccccc2C(=O)N(O)C1c1ccc(Cl)cc1` (stereo not given), in the assay with Acinetobacter baumannii [1], the inhibition at 50 µM worked out at 5.2%. Also, the inhibition entry with Acinetobacter baumannii [2] was “inactive”.

As for `O=C(Cc1cccc(Br)c1)N[C@H]1CCOC1=O`, the inhibition at 50 µM in the assay with Escherichia coli was 50.1%; in the assay on Acinetobacter baumannii [1], 7.9%; with Pseudomonas aeruginosa it was -1.72%; in the assay on Acinetobacter baumannii [3] it was 28.2%.

By MIC is commonly meant the least concentration at which growth counts as inhibited. Take `CCCCCCCCCCN1c2ccccc2C(=O)N(O)C1c1ccccc1O` (stereo not given): the inhibition at 50 µM with Escherichia coli is 40.8%; in the assay on Acinetobacter baumannii [1], 30.7%; in the assay with Pseudomonas aeruginosa, 44.5%; with Acinetobacter baumannii [3], 43.4%. Further, the result with Acinetobacter baumannii [4] was Active. Also, the figures for the MIC in the assay with Acinetobacter baumannii [5] and in the assay on Acinetobacter baumannii [6] were 1020 µg/mL and 2 µg/mL, respectively. For the same compound, in the assay on Acinetobacter baumannii [2], the inhibition entry was “inactive”. For the same compound, the Ratio with Acinetobacter baumannii [7] stood at 0.002. Besides, the Activity in the assay on Acinetobacter baumannii [8] is recorded as 31%. The “fractional inhibitory concentration index (FICI)” value in the assay with Acinetobacter baumannii [9] came to 0.252.

Turning to `CCCCCCCCCCCCCCCCN1c2ccccc2C(=O)N(O)C1c1ccccc1O` (stereo not given), the inhibition at 50 µM in the assay on Acinetobacter baumannii [1] was found to be 4.7%. For the same compound, the inhibition entry in the assay with Acinetobacter baumannii [2] is “inactive”.

Take `CN[C@@H]1[C@@H](O)[C@@H](O[C@@H]2[C@@H](O)[C@H](O[C@H]3O[C@H]([C@@H](C)NC)CC[C@H]3N)[C@@H](N)C[C@H]2N)OC[C@]1(C)O.O=S(=O)(O)O`: the FIC in the assay with Acinetobacter baumannii [10] and in the assay on Acinetobacter baumannii [11] was 0.25 throughout. In addition, the minimum inhibitory concentration (MIC) in the assay on Acinetobacter baumannii [5] stood at 0.25 µg/mL.

As for `O=C1c2ccccc2NC(c2ccccc2O)N1O` (stereo not given), the inhibition at 50 µM with Acinetobacter baumannii [1] was 16.3%. Moreover, the inhibition result with Acinetobacter baumannii [2] was “inactive”.

With `N#Cc1ccccc1CN1c2ccccc2C(=O)N(O)C1c1ccccc1O` (stereo not given), the inhibition at 50 µM in the assay on Acinetobacter baumannii [1] came out at 17.6%. In the assay with Acinetobacter baumannii [2], the inhibition result is “inactive”.

Consider `CCCCCCCCN1c2ccccc2C(=O)N(O)C1c1ccccc1OC` (stereo not given), for which the inhibition at 50 µM in the assay on Acinetobacter baumannii [1] was determined as 7.2%. Besides, in the assay with Acinetobacter baumannii [2], the inhibition entry was “inactive”.

For the compound `CN1c2ccccc2C(=O)N(O)C1c1ccccc1O` (stereo not given), the inhibition at 50 µM in the assay on Acinetobacter baumannii [1] was 14.6%. For the same compound, the inhibition result in the assay on Acinetobacter baumannii [2] was “inactive”.

With `O=C1c2ccccc2N(Cc2cccc(Cl)c2)C(c2ccccc2O)N1O` (stereo not given), the inhibition at 50 µM in the assay on Escherichia coli worked out at 27.5%; with Acinetobacter baumannii [1] it was 34.1%; with Pseudomonas aeruginosa, 55.4%; in the assay with Acinetobacter baumannii [3], 38.2%. Moreover, the outcome in the assay with Acinetobacter baumannii [4] was Active. Further, the MIC with Acinetobacter baumannii [5] is 1020 µg/mL; in the assay on Acinetobacter baumannii [6], 2 µg/mL. Further, in the assay with Acinetobacter baumannii [2], the inhibition result is “inactive”. Moreover, in the assay with Acinetobacter baumannii [7], the Ratio stood at 0.002. Moreover, in the assay with Acinetobacter baumannii [8], the Activity turned out to be 34%. Besides, in the assay on Acinetobacter baumannii [9], the “fractional inhibitory concentration index (FICI)” value turned out to be 0.252.

For the compound `CCCCCCCCCCCCCCN1c2ccccc2C(=O)N(O)C1c1ccccc1O` (stereo not given), the inhibition at 50 µM in the assay with Acinetobacter baumannii [1] was 20.9%. The inhibition result in the assay on Acinetobacter baumannii [2] was “inactive”.

On to `O=C1c2ccccc2N(Cc2cccc(F)c2)C(c2ccccc2O)N1O` (stereo not given), for which the inhibition at 50 µM with Acinetobacter baumannii [1] amounted to 27.5%. For the same compound, the inhibition result in the assay with Acinetobacter baumannii [2] is “inactive”.

`CCCCCCN1c2ccccc2C(=O)N(O)C1c1ccccc1O` (stereo not given): the inhibition at 50 µM with Acinetobacter baumannii [1] was 7.7%. The inhibition result in the assay with Acinetobacter baumannii [2] is “inactive”.

Consider `CCC/C=C/C1N(O)C(=O)c2ccccc2N1CCCCCCCC` (stereo not given), for which, in the assay on Acinetobacter baumannii [1], the inhibition at 50 µM amounted to 2.4%. Moreover, the inhibition entry with Acinetobacter baumannii [2] was “inactive”.

With `CCCCCCCCN1c2ccccc2C(=O)N(O)C1c1ccc(OC)cc1` (stereo not given), the inhibition at 50 µM in the assay with Acinetobacter baumannii [1] came out at 1.3%. For the same compound, in the assay with Acinetobacter baumannii [2], the inhibition entry is “inactive”.

Take `CCCCCCCCN1c2ccccc2C(=O)N(O)C1c1ccccc1Cl` (stereo not given): the inhibition at 50 µM in the assay with Acinetobacter baumannii [1] came out at 8.1%. For the same compound, in the assay with Acinetobacter baumannii [2], the inhibition entry is “inactive”.

As for `CCCCCCCCN1c2ccccc2C(=O)N(O)C1C(C)C` (stereo not given), the inhibition at 50 µM in the assay with Acinetobacter baumannii [1] came out at 10.2%. The inhibition entry in the assay with Acinetobacter baumannii [2] is “inactive”. The result in the assay with Acinetobacter baumannii [12] was inactive.

For `CCCCCCCCN1c2ccccc2C(=O)N(O)C1c1ccccc1` (stereo not given), the inhibition at 50 µM in the assay on Acinetobacter baumannii [1] worked out at 5.5%. Moreover, the inhibition entry in the assay on Acinetobacter baumannii [2] is “inactive”.

Regarding `CCCCN1c2ccccc2C(=O)N(O)C1c1ccccc1O` (stereo not given), in the assay with Acinetobacter baumannii [1], the inhibition at 50 µM turned out to be 29.7%. Also, the inhibition result in the assay on Acinetobacter baumannii [2] was “inactive”.

On to `O=C1c2ccccc2N(Cc2ccccc2)C(c2ccccc2O)N1O` (stereo not given), for which, in the assay with Acinetobacter baumannii [1], the inhibition at 50 µM was found to be 17.5%. The inhibition result in the assay on Acinetobacter baumannii [2] is “inactive”.
